In patent publication US20240140957A1, “BRIDGED COMPOUNDS AS KRAS G12D INHIBITOR AND DEGRADER AND THE USE THEREOF” (BeiGene Switzerland GmbH, priority 2021, published 2024) one finds IC50 data, which are given here for 27 molecules.

The target of the assay is GDP-loaded KRAS G12D (Homo sapiens, UniProt P01116, G12D). As to the kind of experiment: KRAS G12D Probe Displacement Assay. The class given is binding. The settings on record: KRAS G12D 0.5 nM, biotinylated probe 2 4 nM; Table 6 letters; read-out: KRAS G12D Probe Displacement Assay IC50 (class).
Sequence of GDP-loaded KRAS G12D (P01116 1-188 isoform P01116-2 G12D): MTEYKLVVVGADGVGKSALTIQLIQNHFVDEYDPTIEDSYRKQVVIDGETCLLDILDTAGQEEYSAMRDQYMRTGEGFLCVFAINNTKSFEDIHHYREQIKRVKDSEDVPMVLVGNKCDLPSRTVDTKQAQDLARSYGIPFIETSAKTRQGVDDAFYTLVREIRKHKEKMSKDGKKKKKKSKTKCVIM
As a reminder, the IC50 is the concentration that gives 50% inhibition. For `Nc1nc2c(-c3c(C(F)(F)F)cc4c(N5CC6CCC(C5)N6)nc(OC5CCOC5)nc4c3F)ccc(F)c2s1` (stereo not drawn) [Example E143], the IC50 is under 50 nM.

As to `Nc1nc2c(-c3c(C(F)(F)F)cc4c(N5CC6CCC(C5)N6)nc(OCC5CCOCC5)nc4c3F)ccc(F)c2s1` [Example E144, 4-(4-(3,8-diazabicyclo[3.2.1]octan-3-yl)-8-fluoro-2-((tetrahydro-2H-pyran-4-yl)methoxy)-6-(trifluoromethyl)quinazolin-7-yl)-7-fluorobenzo[d]thiazol-2-amine], the IC50 was under 50 nM.

Take `Nc1nc2c(-c3c(C(F)(F)F)cc4c(N5CC6CCC(C5)N6)nc(OCC5CCOC5)nc4c3F)ccc(F)c2s1` (stereo not drawn) [Example E145, 4-(4-(3,8-diazabicyclo[3.2.1]octan-3-yl)-8-fluoro-2-((tetrahydrofuran-3-yl)methoxy)-6-(trifluoromethyl)quinazolin-7-yl)-7-fluorobenzo [d]thiazol-2-amine]: the IC50 is under 50 nM.

`Nc1nc2c(-c3c(C(F)(F)F)cc4c(N5CC6CCC(C5)N6)nc(OCC5CCCCO5)nc4c3F)ccc(F)c2s1` (stereo not drawn) [Example E146, 4-(4-(3,8-diazabicyclo[3.2.1]octan-3-yl)-8-fluoro-2-((tetrahydro-2H-pyran-2-yl)methoxy)-6-(trifluoromethyl)quinazolin-7-yl)-7-fluorobenzo[d]thiazol-2-amine]: the IC50 is under 50 nM.

In the case of `N#CC1(COc2nc(N3CC4CCC(C3)N4)c3cc(C(F)(F)F)c(-c4ccc(F)c5sc(N)nc45)c(F)c3n2)CC1` [Example E147, 1-(((7-(2-amino-7-fluorobenzo[d]thiazol-4-yl)-4-(3,8-diazabicyclo [3.2.1]octan-3-yl)-8-fluoro-6-(trifluoromethyl)quinazolin-2-yl)oxy)methyl)cyclopropane-1-carbonitrile], the IC50 was under 50 nM.

For `Nc1nc2c(-c3c(C(F)(F)F)cc4c(N5CC6CCC(C5)N6)nc(OC5CS(=O)(=O)C5)nc4c3F)ccc(F)c2s1` [Example E148, 3-((7-(2-amino-7-fluorobenzo[d]thiazol-4-yl)-4-(3,8-diazabicyclo [3.2.1]octan-3-yl)-8-fluoro-6-(trifluoromethyl)quinazolin-2-yl)oxy)thietane 1,1-dioxide], the IC50 was under 50 nM.

On to `Nc1nc2c(-c3c(C(F)(F)F)cc4c(N5CC6CCC(C5)N6)nc(OCC5(CO)CC5)nc4c3F)ccc(F)c2s1` [Example E149, (1-(((7-(2-amino-7-fluorobenzo[d]thiazol-4-yl)-4-(3,8-diazabicyclo[3.2.1]octan-3-yl)-8-fluoro-6-(trifluoromethyl)quinazolin-2-yl)oxy)methyl)cyclopropyl) methanol], for which the IC50 was under 50 nM.

With `COC1CC(COc2nc(N3CC4CCC(C3)N4)c3cc(C(F)(F)F)c(-c4ccc(F)c5sc(N)nc45)c(F)c3n2)C1` (stereo not drawn) [Example E150, 4-(4-(3,8-diazabicyclo[3.2.1]octan-3-yl)-8-fluoro-2-((3-methoxycyclobutyl)methoxy)-6-(trifluoromethyl)quinazolin-7-yl)-7-fluorobenzo[d]thiazol-2-amine], the IC50 was under 50 nM.

On to `N#CC1(F)CC(Oc2nc(N3CC4CCC(C3)N4)c3cc(C(F)(F)F)c(-c4ccc(F)c5sc(N)nc45)c(F)c3n2)C1` (stereo not drawn) [Example E151, 3-((7-(2-amino-7-fluorobenzo[d]thiazol-4-yl)-4-(3,8-diazabicyclo[3.2.1]octan-3-yl)-8-fluoro-6-(trifluoromethyl)quinazolin-2-yl)oxy)-1-fluorocyclo butane-1-carbonitrile], for which the IC50 is under 50 nM.

Consider `Nc1nc2c(-c3c(C(F)(F)F)cc4c(N5CC6CCC(C5)N6)nc(OCC56COC(C5)C6)nc4c3F)ccc(F)c2s1` [Example E152, 4-(2-((2-oxabicyclo[2.1.1]hexan-4-yl)methoxy)-4-(3,8-diazabicyclo[3.2.1]octan-3-yl)-8-fluoro-6-(trifluoromethyl)quinazolin-7-yl)-7-fluorobenzo[d] thiazol-2-amine], for which the IC50 was under 50 nM.

On to `Nc1nc2c(-c3c(C(F)(F)F)cc4c(N5CC6CCC(C5)N6)nc(OCC(F)(F)CO)nc4c3F)ccc(F)c2s1` [Example E153, 3-((7-(2-amino-7-fluorobenzo[d]thiazol-4-yl)-4-(3,8-diazabicyclo [3.2.1]octan-3-yl)-8-fluoro-6-(trifluoromethyl)quinazolin-2-yl)oxy)-2,2-difluoropropan-1-ol], for which the IC50 was under 50 nM.

`Nc1nc2c(-c3c(C(F)(F)F)cc4c(N5CC6CCC(C5)N6)nc(OCC5(CO)CCC5)nc4c3F)ccc(F)c2s1` [Example E154, (1-(((7-(2-amino-7-fluorobenzo[d]thiazol-4-yl)-4-(3,8-diazabicyclo[3.2.1]octan-3-yl)-8-fluoro-6-(trifluoromethyl)quinazolin-2-yl)oxy)methyl)cyclobutyl) methanol]: the IC50 is under 50 nM.

As for `N#CC1(CCOc2nc(N3CC4CCC(C3)N4)c3cc(C(F)(F)F)c(-c4ccc(F)c5sc(N)nc45)c(F)c3n2)CC1` [Example E155], the IC50 is under 50 nM.

On to `COC1(COc2nc(N3CC4CCC(C3)N4)c3cc(C(F)(F)F)c(-c4ccc(F)c5sc(N)nc45)c(F)c3n2)CC1` [Example E156], for which the IC50 is under 50 nM.

For the molecule `N#CC1(COc2nc(N3CC4CCC(C3)N4)c3cc(C(F)(F)F)c(-c4ccc(F)c5sc(N)nc45)c(F)c3n2)CCCCC1` [Example E157, 1-(((7-(2-amino-7-fluorobenzo[d]thiazol-4-yl)-4-(3,8-diazabicyclo [3.2.1]octan-3-yl)-8-fluoro-6-(trifluoromethyl)quinazolin-2-yl)oxy)methyl)cyclohexane-1-carbonitrile], the half-maximal inhibitory concentration (IC50) is under 50 nM.

For `Nc1nc2c(-c3c(C(F)(F)F)cc4c(N5CC6CCC(C5)N6)nc(OCC5(CO)CC(F)C5)nc4c3F)ccc(F)c2s1` (stereo not drawn) [Example E158, (1-(((7-(2-amino-7-fluorobenzo[d]thiazol-4-yl)-4-(3,8-diazabicyclo[3.2.1]octan-3-yl)-8-fluoro-6-(trifluoromethyl)quinazolin-2-yl)oxy)methyl)-3-fluorocyclobutyl)methanol], the IC50 is under 50 nM.

On to `Nc1nc2c(-c3c(C(F)(F)F)cc4c(N5CC6CCC(C5)N6)nc(OC5CCOCC5F)nc4c3F)ccc(F)c2s1` (stereo not drawn) [Example E159, 4-(4-(3,8-diazabicyclo[3.2.1]octan-3-yl)-8-fluoro-2-((3-fluorotetra hydro-2H-pyran-4-yl)oxy)-6-(trifluoromethyl)quinazolin-7-yl)-7-fluorobenzo[d]thiazol-2-amine], for which the IC50 was under 50 nM.

In the case of `Nc1nc2c(-c3c(C(F)(F)F)cc4c(N5CC6CCC(C5)N6)nc(OC5CCS(=O)(=O)CC5)nc4c3F)ccc(F)c2s1` [Example E160], the IC50 is under 50 nM.

As to `Nc1nc2c(-c3c(C(F)(F)F)cc4c(N5CC6CCC(C5)N6)nc(OCCCC5COC5)nc4c3F)ccc(F)c2s1` [Example E161], the IC50 is under 50 nM.

On to `Nc1nc2c(-c3c(C(F)(F)F)cc4c(N5CC6CCC(C5)N6)nc(OCC56CC(CO)(C5)C6)nc4c3F)ccc(F)c2s1` [Example E162, (3-(((7-(2-amino-7-fluorobenzo[d]thiazol-4-yl)-4-(3,8-diazabicyclo[3.2.1]octan-3-yl)-8-fluoro-6-(trifluoromethyl)quinazolin-2-yl)oxy)methyl)bicyclo[1.1.1]pentan-1-yl)methanol], for which the IC50 was under 50 nM.

For `Nc1nc2c(-c3c(C(F)(F)F)cc4c(N5CC6CCC(C5)N6)nc(OCC5CC6CCC(C5)O6)nc4c3F)ccc(F)c2s1` (stereo not drawn) [Example E163, 4-(2-((8-oxabicyclo[3.2.1]octan-3-yl)methoxy)-4-(3,8-diazabicyclo[3.2.1]octan-3-yl)-8-fluoro-6-(trifluoromethyl)quinazolin-7-yl)-7-fluorobenzo[d]thiazol-2-amine], the IC50 was under 50 nM.

As for `CC(=O)N1CC(COc2nc(N3CC4CCC(C3)N4)c3cc(C(F)(F)F)c(-c4ccc(F)c5sc(N)nc45)c(F)c3n2)C1` [Example E164, 1-(3-(((7-(2-amino-7-fluorobenzo[d]thiazol-4-yl)-4-(3,8-diazabicyclo[3.2.1]octan-3-yl)-8-fluoro-6-(trifluoromethyl)quinazolin-2-yl)oxy)methyl)azetidin-1-yl)ethan-1-one], the IC50 was under 50 nM.

Take `Nc1nc2c(-c3c(C(F)(F)F)cc4c(N5CC6CCC(C5)N6)nc(OCC56CCC(CC5)OC6)nc4c3F)ccc(F)c2s1` [Example E165, 4-(2-((2-oxabicyclo[2.2.2]octan-4-yl)methoxy)-4-(3,8-diazabicyclo[3.2.1]octan-3-yl)-8-fluoro-6-(trifluoromethyl)quinazolin-7-yl)-7-fluorobenzo[d]thiazol-2-amine]: the IC50 is under 50 nM.

Regarding `CC1(COc2nc(N3CC4CCC(C3)N4)c3cc(C(F)(F)F)c(-c4ccc(F)c5sc(N)nc45)c(F)c3n2)CCO1` (stereo not drawn) [Example E166, 4-(4-(3,8-diazabicyclo[3.2.1]octan-3-yl)-8-fluoro-2-((2-methyloxetan-2-yl)methoxy)-6-(trifluoromethyl)quinazolin-7-yl)-7-fluorobenzo[d]thiazol-2-amine], the IC50 was under 50 nM.

For `COC1CC(Oc2nc(N3CC4CCC(C3)N4)c3cc(C(F)(F)F)c(-c4ccc(F)c5sc(N)nc45)c(F)c3n2)C1` (stereo not drawn) [Example E167, 4-(4-(3,8-diazabicyclo[3.2.1]octan-3-yl)-8-fluoro-2-(3-methoxycyclobutoxy)-6-(trifluoromethyl)quinazolin-7-yl)-7-fluorobenzo[d]thiazol-2-amine], the IC50 fell in the range of 50 to 100 nM.

Turning to `CO[C@@H]1CC[C@H]1COc1nc(N2CC3CCC(C2)N3)c2cc(C(F)(F)F)c(-c3ccc(F)c4sc(N)nc34)c(F)c2n1` [Example E168, 4-(4-(3,8-diazabicyclo[3.2.1]octan-3-yl)-8-fluoro-2-(((1S,2R)-2-methoxycyclobutyl)methoxy)-6-(trifluoromethyl)quinazolin-7-yl)-7-fluorobenzo[d]thiazol-2-amine], the IC50 was under 50 nM.

As to `COCC(CO)(COc1nc(N2CC3CCC(C2)N3)c2cc(C(F)(F)F)c(-c3ccc(F)c4sc(N)nc34)c(F)c2n1)OC` (stereo not drawn) [Example E169, 3-((7-(2-amino-7-fluorobenzo[d]thiazol-4-yl)-4-(3,8-diazabicyclo [3.2.1]octan-3-yl)-8-fluoro-6-(trifluoromethyl)quinazolin-2-yl)oxy)-2-methoxy-2-(methoxymethyl)propan-1-ol], the IC50 was under 50 nM.
